Data taken from patent US8283521B2, “Transcription factor gene induced by water deficit conditions and abscisic acid from Helianthus annuus, promoter and transgenic plants” (Bioceres S.A., priority 2003, dated 2012).

Legend:
[1] = system: Hahb-4; experiment: Hahb-4 expression in treated sunflower seedlings by RNAse protection; assay type: in vivo, Helianthus annuus
Source text: We have analyzed the expression of Hahb-4 under different environmental conditions (i.e. water, osmotic, salt, cold, heat, and oxidative stress) by RNAse protection, which is more sensitive than the Northern technique (FIG. 2).
As many responses to water stress are mediated by ABA, we have also analyzed the effect of this hormone on the expression.
Helianthus annuus L. (sunflower cv. contiflor 15, from Zeneca, Balcarce, Argentina, or cv. Sunweed, from Rhône-Poulenc, Lyon, France) seeds were surface sterilized and grown on filter paper inside Petri dishes for a period of 4 d. Seedlings were then transferred to plastic supports containing Hoagland's medium and grown until they had six leaves (approximately 3 weeks). Water stress was imposed either by transferring 4-day-old-seedlings to Petri dishes with dry filter paper or by removing plants from the hydroponic culture.
For RNAse protection analysis, total RNA (15 μg) prepared as described (Almoguera C., et. al.; Plant molecular Biology 19: 781-792, 1992) was hybridized to a specific Hahb-4 riboprobe synthesized by in vitro transcription using T3 RNA polymerase and [^32P]CTP following the instructions of the manufacturer (Boehringer Mannheim, Mannheim, Germany). The template consisted of an insert corresponding to the coding region between +81 and +429 (FIG. 1 and SEQ ID NO 1) cloned into the SpeI/BamHI sites of pBlue-script SK^−. The BamHI site, not present in the cDNA, derives from amplification with oligonucleotide H41 as described above. Restriction digestion of this template DNA with EcoRI allows transcription of a 411-nucleotide RNA probe that contains 63 nucleotides from the vector (from the T3 promoter to the SpeI site in the polylinker, and from the BamHI to the EcoRI sites). Conditions for riboprobe preparation, hybridization, digestion with RNAse A, and subsequent electrophoretic analysis of protected RNA fragments were as previously described (Coca M: A: et. al.; Plant Molecular Biology 31: 863-876, 1996, herein incorporated as reference).

[2] = system: Hahb-4; experiment: Time dependence of the response of Hahb-4 to ABA by Northern analysis; assay type: in vivo, Helianthus annuus; settings: 100 μM ABA
Protocol: Total RNA (20 μg) was isolated from seedlings that were either untreated, or treated with 100 μM ABA for different times as indicated in each lane. In the lower panel, the same filter was hybridized with an rRNA probe as a control for RNA loading and transfer.
The high level of induction observed under water stress conditions allowed us to analyze the time-dependent increase in transcript levels by Northern experiments. […] After this time, no further increments in Hahb-4 transcript levels were observed. Re-hydration of the seedlings lowered Hahb-4 transcript levels more slowly, with only about a 50% decrease after 2 h (FIG. 3, lanes 4 and 5). The effect of ABA treatment was also time dependent. […] The high Hahb-4 transcript levels of the invention are reverted after the re-hydration of the sunflower plants, thus indicating again that said gene participates in the response to the water stress.
Total RNA (20 μg) was denatured with formamide and formaldehyde, separated in a 1.5% (w/v) agarose/6% formaldehyde gel, and blotted onto nylon membranes (Hybond N; Amersham-Pharmacia, Buckinghamshire, UK) essentially as described by Sambrook, Fritsch & Maniatis (1989).
Hybridization was performed overnight at 65° C. in 6×SSC (1×SSC is 0.15 M NaCl, 0.015 M Na3-citrate, pH 7.0), 0.1% (w/v) polyvinylpirrolidone, 0.1% (w/v) bovine serum albumin, 0.1% (w/v) Ficoll, 0.5% (w/v) sodium dodecyl sulphate (SDS). […] The filters were autoradiographed using Bio-Max films and transcreen (Eastman Kodak, Rochester, N.Y., USA) overnight. To check the amount of total RNA loaded in each lane, filters were then re-probed with a 25S rRNA from Vicia faba under similar conditions as those described above, except that hybridization was performed at 62° C.

[3] = system: 5′-CAAT(A/T)ATTG-3′ DNA sequence; experiment: Electrophoretic mobility shift assay with nuclear extracts of treated seedlings; assay type: binding, Helianthus annuus; settings: nuclear extracts from ABA-treated 4-day-old seedlings
Protocol: The presence of functional DNA binding proteins in sunflower nuclei was analyzed by electrophoretic mobility shift assays using a synthetic double-stranded oligonucleotide comprising the sequence 5′-CAAT(A/T)ATTG-3′ (SEQ ID NO:23) bound in vitro by Hahb-4 expressed in bacteria. […] On the contrary, only the slower-migrating complex increased when plants were subjected to water stress. Formation of both complexes was almost completely abolished by an excess of the same unlabelled DNA, but not by an equivalent amount of a similar DNA containing the sequence 5′-CACT(A/T)AGTG-3′ (SEQ ID NO:31) (changed positions underlined) not bound by Hahb-4 (FIG. 6).
Sunflower nuclei and nuclear extracts were prepared from control, water-stressed, or ABA-treated seedlings (4-days-old) according to the technique described in Maliga et al. (Methods in Plant Molecular Biology. A Laboratory Course Manual, pages 233-260. Cold Spring Harbor Laboratory Press, Cold Spring Harbor, N.Y., USA, 1995, herein incorporated by reference). Protein patterns were analyzed by SDS-polyacryla-mide gel electrophoresis (PAGE) and total protein concentration was measured as described Sedmak J. et. al., Analytical Biochemistry 79: 544-552, 1977. […]

[4] = system: Arabidopsis thaliana; experiment: Germination in the presence of mannitol or NaCl; assay type: in vivo; settings: 50, 200, 300 mM mannitol
Protocol: First, the germination process, under conditions imitating the lack of water, such as presence of mannitol, and other conditions generating salt stress, was analyzed. FIGS. 11, 12 and 13 show the germination times of plants transformed according to the invention as compared to control ones. […] This effect is more remarked at higher concentrations of the carbohydrate.
When the germination tests were carried out in the presence of different concentrations of NaCl the obtained results were similar as in the case of mannitol.
The seeds from Arabidopsis thaliana were sterilized by washing with ethanol 70% (v/v) (1 min), chlorine 5%-SDS 1% (15 min) and sterile distilled water (3 times). Then the seeds were suspended in 8 ml of agar 0.1% and sowed in 150 mm Petri plates containing MS medium, with the addition of Gamborg's vitamins. The plates were maintained at 4° C. during two days and then placed into a culture chamber with controlled light and temperature (16 hours light at 24° C. and 8 hours darkness at 21° C.). The required illumination conditions (150-200 μE/m 2) were artificially obtained by keeping the plants at a distance of 25 cm from six fluorescent tubes, intercalating white light and Grolux tubes (from Sylvania) adjacently located.

Structure (SMILES) | Hahb-4 transcript levels ([1]; 10 μM ABA) | Hahb-4 expression ([1]; 100 μM ABA, 24 h, irrigated 4-day-old seedlings) | Hahb-4 transcript levels after 24 h of treatment ([2]; 24 h) | time of maximum response of Hahb-4 to ABA ([2]; seedlings) [h] | time until response of Hahb-4 to ABA is detectable ([2]; seedlings) [h] | amount of both protein complexes binding the Hahb-4 target sequence [3] | Hahb-4 expression ([1]; 0.5 M mannitol during 4 h, 4-day-old seedlings) | effect of mannitol on germination [4]
CC1=CC(=O)CC(C)(C)[C@@]1(O)/C=C/C(C)=C\C(=O)O [ABA, abscisic acid] | smaller, but significant increase in transcript levels | induction was observed | still significantly high | 3 to 6 | ≤ 1 | significantly increased |  | 
OC[C@@H](O)[C@@H](O)[C@H](O)[C@H](O)CO [Mannitol, mannitol] |  |  |  |  |  |  | induced Hahb-4 expression, although at lower levels | delays the germination
